According to ChEMBL document CHEMBL4507319 (2021):
Calls of active or inactive are those of the source. The rule behind the calls is not given here.

What was measured:
[1] = molecular target: Insulin receptor (Homo sapiens) (UniProt P06213); assay: IR(h) Eurofins kinase panel; details: Compound concentration 1.0 uM
[2] = molecular target: T1, Beta-adrenergic receptor kinase 1 (Homo sapiens) (UniProt P25098); assay: GRK2(h) Eurofins kinase panel; details: Compound concentration 1.0 uM
T1 sequence (whole entry): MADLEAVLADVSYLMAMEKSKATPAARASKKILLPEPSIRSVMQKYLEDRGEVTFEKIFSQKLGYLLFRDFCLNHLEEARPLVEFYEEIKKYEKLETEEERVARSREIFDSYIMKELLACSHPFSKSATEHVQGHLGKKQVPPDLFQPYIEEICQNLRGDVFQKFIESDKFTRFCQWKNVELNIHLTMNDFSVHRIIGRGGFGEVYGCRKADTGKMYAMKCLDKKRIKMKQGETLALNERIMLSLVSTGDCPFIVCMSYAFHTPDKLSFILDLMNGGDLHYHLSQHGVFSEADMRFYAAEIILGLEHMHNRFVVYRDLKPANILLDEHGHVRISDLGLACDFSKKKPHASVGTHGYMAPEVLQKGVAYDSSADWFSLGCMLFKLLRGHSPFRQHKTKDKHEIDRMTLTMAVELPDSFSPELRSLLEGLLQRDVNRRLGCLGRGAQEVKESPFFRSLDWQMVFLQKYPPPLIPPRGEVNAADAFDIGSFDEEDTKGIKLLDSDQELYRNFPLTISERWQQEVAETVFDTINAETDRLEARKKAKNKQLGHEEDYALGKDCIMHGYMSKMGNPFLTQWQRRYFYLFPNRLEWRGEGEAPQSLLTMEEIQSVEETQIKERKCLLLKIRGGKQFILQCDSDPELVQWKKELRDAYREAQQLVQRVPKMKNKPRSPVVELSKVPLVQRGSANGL

[3] = molecular target: Epidermal growth factor receptor (Homo sapiens) (UniProt P00533); assay: EGFR(h) Eurofins kinase panel; details: Compound concentration 1.0 uM
Epidermal growth factor receptor (Homo sapiens), sequence (P00533 whole entry): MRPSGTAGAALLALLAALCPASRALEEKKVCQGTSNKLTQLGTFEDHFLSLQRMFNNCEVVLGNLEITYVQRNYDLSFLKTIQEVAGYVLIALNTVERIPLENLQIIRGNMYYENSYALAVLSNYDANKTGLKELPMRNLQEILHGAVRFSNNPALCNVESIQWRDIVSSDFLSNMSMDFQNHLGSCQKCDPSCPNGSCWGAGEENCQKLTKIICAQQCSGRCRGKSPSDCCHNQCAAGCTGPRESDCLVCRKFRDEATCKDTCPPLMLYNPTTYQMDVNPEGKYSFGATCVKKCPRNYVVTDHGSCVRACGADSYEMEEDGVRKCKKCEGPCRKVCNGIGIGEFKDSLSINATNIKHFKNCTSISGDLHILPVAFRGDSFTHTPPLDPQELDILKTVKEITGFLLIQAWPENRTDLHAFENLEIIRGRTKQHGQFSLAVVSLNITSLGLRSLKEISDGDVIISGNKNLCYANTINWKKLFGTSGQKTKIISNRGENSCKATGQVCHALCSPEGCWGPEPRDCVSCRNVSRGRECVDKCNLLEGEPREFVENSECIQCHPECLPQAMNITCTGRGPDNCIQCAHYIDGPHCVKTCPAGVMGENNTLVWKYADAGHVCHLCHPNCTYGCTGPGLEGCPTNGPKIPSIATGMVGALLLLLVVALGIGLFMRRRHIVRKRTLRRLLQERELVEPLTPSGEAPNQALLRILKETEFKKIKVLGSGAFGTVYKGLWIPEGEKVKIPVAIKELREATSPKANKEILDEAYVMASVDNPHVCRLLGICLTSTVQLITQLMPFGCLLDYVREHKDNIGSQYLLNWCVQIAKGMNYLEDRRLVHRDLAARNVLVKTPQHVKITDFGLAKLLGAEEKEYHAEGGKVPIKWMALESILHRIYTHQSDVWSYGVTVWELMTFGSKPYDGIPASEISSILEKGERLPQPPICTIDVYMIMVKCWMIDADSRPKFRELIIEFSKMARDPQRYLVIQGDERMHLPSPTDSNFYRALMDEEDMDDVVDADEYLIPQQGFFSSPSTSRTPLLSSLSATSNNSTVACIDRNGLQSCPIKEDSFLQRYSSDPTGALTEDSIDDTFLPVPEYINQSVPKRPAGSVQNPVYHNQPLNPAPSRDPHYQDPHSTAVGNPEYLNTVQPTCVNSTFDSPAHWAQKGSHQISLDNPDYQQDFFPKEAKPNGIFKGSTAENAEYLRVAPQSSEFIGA

[4] = molecular target: Calcium/calmodulin-dependent protein kinase type 1 (Homo sapiens) (UniProt Q14012); assay: CaMKI(h) Eurofins kinase panel; details: Compound concentration 1.0 uM
Calcium/calmodulin-dependent protein kinase type 1 (Homo sapiens), sequence (Q14012 whole entry, looked up): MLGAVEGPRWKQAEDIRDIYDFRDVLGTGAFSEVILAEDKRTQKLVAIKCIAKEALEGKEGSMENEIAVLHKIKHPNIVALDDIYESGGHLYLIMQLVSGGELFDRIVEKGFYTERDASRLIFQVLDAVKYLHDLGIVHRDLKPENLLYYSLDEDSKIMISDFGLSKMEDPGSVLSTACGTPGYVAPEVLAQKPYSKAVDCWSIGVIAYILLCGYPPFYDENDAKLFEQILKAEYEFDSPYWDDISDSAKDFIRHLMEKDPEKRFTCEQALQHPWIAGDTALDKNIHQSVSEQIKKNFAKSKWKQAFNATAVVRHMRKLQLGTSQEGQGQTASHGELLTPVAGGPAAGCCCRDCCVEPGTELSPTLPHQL

[5] = molecular target: Tyrosine-protein kinase Fes/Fps (Homo sapiens) (UniProt P07332); assay: Fes(h) Eurofins kinase panel; details: Compound concentration 1.0 uM
Tyrosine-protein kinase Fes/Fps (Homo sapiens), sequence (P07332 whole entry): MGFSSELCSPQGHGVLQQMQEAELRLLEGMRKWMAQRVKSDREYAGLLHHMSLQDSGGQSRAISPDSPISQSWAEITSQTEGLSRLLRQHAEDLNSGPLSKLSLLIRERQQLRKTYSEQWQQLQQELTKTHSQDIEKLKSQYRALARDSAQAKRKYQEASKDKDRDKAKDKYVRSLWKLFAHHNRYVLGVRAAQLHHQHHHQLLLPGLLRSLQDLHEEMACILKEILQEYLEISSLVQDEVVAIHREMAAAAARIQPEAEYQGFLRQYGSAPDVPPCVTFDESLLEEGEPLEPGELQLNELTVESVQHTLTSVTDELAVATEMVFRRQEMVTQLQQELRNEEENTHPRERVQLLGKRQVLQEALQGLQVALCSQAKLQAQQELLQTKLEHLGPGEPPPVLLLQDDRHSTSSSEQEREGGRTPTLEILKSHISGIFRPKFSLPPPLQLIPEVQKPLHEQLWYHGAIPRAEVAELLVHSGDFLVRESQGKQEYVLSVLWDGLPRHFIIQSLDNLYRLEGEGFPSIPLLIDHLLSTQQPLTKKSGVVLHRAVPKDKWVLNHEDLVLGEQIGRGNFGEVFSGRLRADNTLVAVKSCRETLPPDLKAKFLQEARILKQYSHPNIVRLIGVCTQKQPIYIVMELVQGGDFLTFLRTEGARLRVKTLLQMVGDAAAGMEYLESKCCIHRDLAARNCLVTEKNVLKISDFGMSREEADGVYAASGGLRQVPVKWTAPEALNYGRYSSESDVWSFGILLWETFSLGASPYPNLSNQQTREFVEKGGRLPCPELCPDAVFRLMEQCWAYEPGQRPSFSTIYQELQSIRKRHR

[6] = molecular target: T2, Serine/threonine-protein kinase 3 (Homo sapiens) (UniProt Q13188); assay: MST2(h) Eurofins kinase panel; details: Compound concentration 1.0 uM
T2 sequence (whole entry): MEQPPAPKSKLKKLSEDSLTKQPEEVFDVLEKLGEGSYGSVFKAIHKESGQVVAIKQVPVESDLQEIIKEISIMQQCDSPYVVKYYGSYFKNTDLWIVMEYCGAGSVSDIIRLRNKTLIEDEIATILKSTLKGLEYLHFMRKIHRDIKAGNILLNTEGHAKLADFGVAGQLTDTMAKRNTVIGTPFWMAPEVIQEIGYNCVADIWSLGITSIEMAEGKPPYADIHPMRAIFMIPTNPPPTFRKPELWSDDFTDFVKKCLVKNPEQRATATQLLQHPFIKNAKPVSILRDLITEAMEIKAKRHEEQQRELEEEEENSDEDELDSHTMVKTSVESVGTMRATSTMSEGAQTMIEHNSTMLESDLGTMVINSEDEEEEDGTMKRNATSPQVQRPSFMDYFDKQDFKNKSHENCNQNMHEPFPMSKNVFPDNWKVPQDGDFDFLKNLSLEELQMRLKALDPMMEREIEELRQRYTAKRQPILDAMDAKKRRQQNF

[7] = molecular target: Glycogen synthase kinase-3 alpha (Homo sapiens) (UniProt P49840); assay: GSK3α(h) Eurofins kinase panel; details: Compound concentration 1.0 uM
Glycogen synthase kinase-3 alpha (Homo sapiens), sequence (P49840 2-483 limits assumed): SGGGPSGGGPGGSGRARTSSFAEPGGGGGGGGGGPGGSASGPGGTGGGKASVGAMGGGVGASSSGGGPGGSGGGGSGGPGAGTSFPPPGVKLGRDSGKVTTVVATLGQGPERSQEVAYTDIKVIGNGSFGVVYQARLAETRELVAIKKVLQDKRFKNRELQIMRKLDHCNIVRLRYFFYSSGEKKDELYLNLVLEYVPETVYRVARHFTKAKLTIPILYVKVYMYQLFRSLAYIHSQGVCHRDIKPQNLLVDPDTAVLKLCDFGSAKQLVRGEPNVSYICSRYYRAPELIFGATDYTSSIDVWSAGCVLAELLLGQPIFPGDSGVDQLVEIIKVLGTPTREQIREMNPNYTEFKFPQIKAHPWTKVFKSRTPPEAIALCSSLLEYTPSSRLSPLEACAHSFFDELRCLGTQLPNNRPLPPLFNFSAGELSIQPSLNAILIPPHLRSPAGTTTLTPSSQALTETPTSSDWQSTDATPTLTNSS

[8] = molecular target: 5'-AMP-activated protein kinase catalytic subunit alpha-1 (Homo sapiens, UniProt Q13131); assay: Eurofins kinase panel (PRKAA1); set-up: compound concentration 1 uM
5'-AMP-activated protein kinase catalytic subunit alpha-1, sequence (Q13131 whole entry): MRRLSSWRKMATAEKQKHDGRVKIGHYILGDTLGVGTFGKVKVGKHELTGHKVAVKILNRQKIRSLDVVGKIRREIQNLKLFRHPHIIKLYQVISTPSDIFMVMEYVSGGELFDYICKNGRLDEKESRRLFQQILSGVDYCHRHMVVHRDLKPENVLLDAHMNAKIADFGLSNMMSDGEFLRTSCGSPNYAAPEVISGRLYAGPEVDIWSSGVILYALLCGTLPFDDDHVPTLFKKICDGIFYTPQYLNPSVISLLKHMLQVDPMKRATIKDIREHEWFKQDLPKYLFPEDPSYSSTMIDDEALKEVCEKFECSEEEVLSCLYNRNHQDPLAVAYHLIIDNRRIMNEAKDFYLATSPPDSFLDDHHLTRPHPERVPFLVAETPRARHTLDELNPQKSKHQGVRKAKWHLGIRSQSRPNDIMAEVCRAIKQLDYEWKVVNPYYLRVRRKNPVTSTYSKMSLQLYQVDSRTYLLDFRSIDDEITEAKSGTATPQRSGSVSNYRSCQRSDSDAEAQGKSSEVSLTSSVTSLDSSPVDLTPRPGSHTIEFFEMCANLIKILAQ

[9] = molecular target: T3, Activin receptor type-1 (Homo sapiens) (UniProt Q04771); assay: ALK2(h) Eurofins kinase panel; details: Compound concentration 1.0 uM
T3 sequence (whole entry): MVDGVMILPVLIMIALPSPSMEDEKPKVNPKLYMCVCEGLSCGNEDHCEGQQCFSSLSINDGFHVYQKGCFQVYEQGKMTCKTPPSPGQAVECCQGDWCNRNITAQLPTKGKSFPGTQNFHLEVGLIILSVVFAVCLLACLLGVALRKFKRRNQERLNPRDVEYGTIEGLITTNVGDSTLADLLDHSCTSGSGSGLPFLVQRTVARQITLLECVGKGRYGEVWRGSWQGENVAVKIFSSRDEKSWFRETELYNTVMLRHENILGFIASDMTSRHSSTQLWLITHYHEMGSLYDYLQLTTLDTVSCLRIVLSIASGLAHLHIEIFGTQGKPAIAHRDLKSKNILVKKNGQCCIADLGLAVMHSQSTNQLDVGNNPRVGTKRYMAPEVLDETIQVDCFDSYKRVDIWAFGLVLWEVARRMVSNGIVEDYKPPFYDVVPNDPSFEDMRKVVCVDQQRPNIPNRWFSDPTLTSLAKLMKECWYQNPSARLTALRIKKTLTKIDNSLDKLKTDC

[10] = molecular target: Beta-2 adrenergic receptor (Homo sapiens) (UniProt P07550); details: Compound concentration 10.0 uM

Insulin receptor (Homo sapiens), sequence (P06213 28-758 limits assumed): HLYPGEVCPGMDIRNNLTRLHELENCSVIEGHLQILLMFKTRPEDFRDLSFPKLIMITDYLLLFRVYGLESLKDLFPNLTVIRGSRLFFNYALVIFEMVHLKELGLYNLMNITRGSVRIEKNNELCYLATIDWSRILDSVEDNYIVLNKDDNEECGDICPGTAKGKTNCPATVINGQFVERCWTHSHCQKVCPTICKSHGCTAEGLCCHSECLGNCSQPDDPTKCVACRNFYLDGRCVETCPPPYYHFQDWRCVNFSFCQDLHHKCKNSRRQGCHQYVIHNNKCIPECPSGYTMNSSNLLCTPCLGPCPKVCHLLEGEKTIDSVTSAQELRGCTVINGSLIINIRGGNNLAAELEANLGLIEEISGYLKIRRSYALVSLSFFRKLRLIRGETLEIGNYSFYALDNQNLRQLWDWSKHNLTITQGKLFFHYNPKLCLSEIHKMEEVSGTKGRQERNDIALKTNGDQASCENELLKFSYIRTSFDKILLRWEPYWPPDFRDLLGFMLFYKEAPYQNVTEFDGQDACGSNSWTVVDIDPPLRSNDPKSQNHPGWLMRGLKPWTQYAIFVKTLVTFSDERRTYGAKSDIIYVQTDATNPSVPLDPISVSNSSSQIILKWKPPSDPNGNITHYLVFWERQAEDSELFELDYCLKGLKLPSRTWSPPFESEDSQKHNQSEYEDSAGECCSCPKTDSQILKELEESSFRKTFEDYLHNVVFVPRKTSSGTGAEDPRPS
Insulin receptor (Homo sapiens), sequence (P06213 763-1382 limits assumed): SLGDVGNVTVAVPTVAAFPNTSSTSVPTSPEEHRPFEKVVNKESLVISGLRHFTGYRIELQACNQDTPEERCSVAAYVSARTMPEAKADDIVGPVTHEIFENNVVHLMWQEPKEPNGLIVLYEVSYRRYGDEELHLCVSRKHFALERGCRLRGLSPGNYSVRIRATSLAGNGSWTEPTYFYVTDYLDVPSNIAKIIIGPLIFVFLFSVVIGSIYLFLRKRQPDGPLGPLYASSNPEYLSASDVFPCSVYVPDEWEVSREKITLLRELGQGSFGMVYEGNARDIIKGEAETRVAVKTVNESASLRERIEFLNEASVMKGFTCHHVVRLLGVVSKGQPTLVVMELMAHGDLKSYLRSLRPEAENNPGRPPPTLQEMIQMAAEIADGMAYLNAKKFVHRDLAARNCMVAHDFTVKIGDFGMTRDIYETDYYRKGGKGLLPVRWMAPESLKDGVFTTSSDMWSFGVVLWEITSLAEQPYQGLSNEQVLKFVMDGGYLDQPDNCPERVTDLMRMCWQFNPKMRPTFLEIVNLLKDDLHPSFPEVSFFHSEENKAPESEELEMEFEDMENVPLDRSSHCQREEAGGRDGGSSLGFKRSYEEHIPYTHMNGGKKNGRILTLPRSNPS

Row | Structure (SMILES) | % residual kinase activity [1] | % residual kinase activity [2] | % residual kinase activity [3] | % residual kinase activity [4] | % residual kinase activity [5] | % residual kinase activity [6] | % residual kinase activity [7] | IC50 [8] | % residual kinase activity [9] | inhibition [10]
1 | CCc1ccccc1C(=O)Nc1n[nH]c2c(C)c(F)c(C3C(C#N)=C(C)N(C)C(C)=C3C#N)cc12 [BAY-3827] | 115% | 102% | 107% | 93% | 89% | 47% | 83% | 7 nM (active) | 109% | –
2 | CC1=C(C#N)C(c2ccc3c(c2)c(NC(=O)c2ccccc2C)nn3C)C(C#N)=C(C)N1 [BAY-974] | – | – | – | – | – | – | – | – | – | -7.25%
